Results on two molecules are retold here after ChEMBL document CHEMBL5696441 (Nat Chem Biol, 2011).

Assay [1] deals with Tyrosine-protein kinase ABL1 (Homo sapiens), P00519 [F317I]. As to the kind of experiment: Inhibition of ABL1 F317I mutant (unknown origin) assessed as remaining activity at 1 uM by Kinome scan method relative to control.
In assay [2] the target is Activin receptor type-1-like (Homo sapiens) (UniProt P37023). Put plainly: Inhibition of ACVRL1 (unknown origin) assessed as remaining activity at 1 uM by Kinome scan method relative to control.
In assay [3] the target is T1, Aurora kinase C (Homo sapiens) (UniProt Q9UQB9).
T1 sequence (whole entry): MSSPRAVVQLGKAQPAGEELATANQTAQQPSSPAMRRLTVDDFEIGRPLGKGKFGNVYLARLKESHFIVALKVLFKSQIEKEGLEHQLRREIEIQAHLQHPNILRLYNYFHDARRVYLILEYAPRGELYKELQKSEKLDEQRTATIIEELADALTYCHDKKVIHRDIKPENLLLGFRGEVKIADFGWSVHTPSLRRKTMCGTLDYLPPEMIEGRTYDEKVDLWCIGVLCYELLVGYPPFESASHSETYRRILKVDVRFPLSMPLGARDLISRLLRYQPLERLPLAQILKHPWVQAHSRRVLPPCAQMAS
As to the kind of experiment: Inhibition of AURKC (unknown origin) assessed as remaining activity at 1 uM by Kinome scan method relative to control.

In assay [4] the target is Cyclin-dependent kinase-like 5 (Homo sapiens) (UniProt O76039). As to the kind of experiment: Inhibition of CDKL5 (unknown origin) assessed as remaining activity at 1 uM by Kinome scan method relative to control.
In assay [5] the target is Death-associated protein kinase 1 (Homo sapiens) (UniProt P53355). Put plainly: Inhibition of DAPK1 (unknown origin) assessed as remaining activity at 1 uM by Kinome scan method relative to control.
Assay [6] addresses Fibroblast growth factor receptor 1 (Homo sapiens) (UniProt P11362). As to the kind of experiment: Inhibition of FGFR1 (unknown origin) assessed as remaining activity at 1 uM by Kinome scan method relative to control.
For assay [7], the target named is T2, Homeodomain-interacting protein kinase 4 (Homo sapiens) (UniProt Q8NE63).
T2 sequence (whole entry): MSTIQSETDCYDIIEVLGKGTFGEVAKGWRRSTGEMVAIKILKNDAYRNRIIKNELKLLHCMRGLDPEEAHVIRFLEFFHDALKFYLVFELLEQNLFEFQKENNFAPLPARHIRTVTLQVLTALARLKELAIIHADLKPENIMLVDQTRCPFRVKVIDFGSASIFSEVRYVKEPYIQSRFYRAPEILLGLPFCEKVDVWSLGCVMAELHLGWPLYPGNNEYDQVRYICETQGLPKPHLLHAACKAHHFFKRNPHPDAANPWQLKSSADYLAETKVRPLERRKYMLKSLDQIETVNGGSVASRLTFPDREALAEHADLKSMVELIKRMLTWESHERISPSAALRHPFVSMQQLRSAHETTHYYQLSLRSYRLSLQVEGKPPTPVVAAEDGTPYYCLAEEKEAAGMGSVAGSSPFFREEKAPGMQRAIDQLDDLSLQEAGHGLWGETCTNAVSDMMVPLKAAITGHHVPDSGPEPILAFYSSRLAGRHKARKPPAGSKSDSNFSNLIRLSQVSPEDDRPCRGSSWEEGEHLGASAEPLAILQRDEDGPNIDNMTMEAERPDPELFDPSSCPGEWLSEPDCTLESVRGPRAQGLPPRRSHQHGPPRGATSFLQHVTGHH
Put plainly: Inhibition of HIPK4 (unknown origin) assessed as remaining activity at 1 uM by Kinome scan method relative to control.

The target in assay [8] is Mitogen-activated protein kinase 8 (Homo sapiens) (UniProt P45983). As to the kind of experiment: Inhibition of JNK1 (unknown origin) assessed as remaining activity at 1 uM by Kinome scan method relative to control.
Assay [9] deals with Serine/threonine-protein kinase STK11 (Homo sapiens) (UniProt Q15831). As to the kind of experiment: Inhibition of LKB1 (unknown origin) assessed as remaining activity at 1 uM by Kinome scan method relative to control.
For assay [10], the target named is Mitogen-activated protein kinase kinase kinase 15 (Homo sapiens) (UniProt Q6ZN16). Put plainly: Inhibition of MAP3K15 (unknown origin) assessed as remaining activity at 1 uM by Kinome scan method relative to control.
Assay [11] deals with Mitogen-activated protein kinase kinase kinase 4 (Homo sapiens) (UniProt Q9Y6R4). As to the kind of experiment: Inhibition of MAP3K4 (unknown origin) assessed as remaining activity at 1 uM by Kinome scan method relative to control.
In assay [12] the target is Dual specificity mitogen-activated protein kinase kinase 6 (Homo sapiens) (UniProt P52564). As to the kind of experiment: Inhibition of MEK6 (unknown origin) assessed as remaining activity at 1 uM by Kinome scan method relative to control.
The target in assay [13] is Myosin light chain kinase, smooth muscle (Homo sapiens) (UniProt Q15746). As to the kind of experiment: Inhibition of MYLK (unknown origin) assessed as remaining activity at 1 uM by Kinome scan method relative to control.
The target in assay [14] is Mitogen-activated protein kinase 11 (Homo sapiens) (UniProt Q15759). As to the kind of experiment: Inhibition of P38beta (unknown origin) assessed as remaining activity at 1 uM by Kinome scan method relative to control.
Assay [15] addresses RAF proto-oncogene serine/threonine-protein kinase (Homo sapiens) (UniProt P04049). As to the kind of experiment: Inhibition of RAF1 (unknown origin) assessed as remaining activity at 1 uM by Kinome scan method relative to control.
In assay [16] the target is Myosin light chain kinase family member 4 (Homo sapiens) (UniProt Q86YV6). Put plainly: Inhibition of SgK085 (unknown origin) assessed as remaining activity at 1 uM by Kinome scan method relative to control.
Assay [17] concerns the target T3, TGF-beta receptor type-1 (Homo sapiens) (UniProt P36897).
T3 sequence (whole entry): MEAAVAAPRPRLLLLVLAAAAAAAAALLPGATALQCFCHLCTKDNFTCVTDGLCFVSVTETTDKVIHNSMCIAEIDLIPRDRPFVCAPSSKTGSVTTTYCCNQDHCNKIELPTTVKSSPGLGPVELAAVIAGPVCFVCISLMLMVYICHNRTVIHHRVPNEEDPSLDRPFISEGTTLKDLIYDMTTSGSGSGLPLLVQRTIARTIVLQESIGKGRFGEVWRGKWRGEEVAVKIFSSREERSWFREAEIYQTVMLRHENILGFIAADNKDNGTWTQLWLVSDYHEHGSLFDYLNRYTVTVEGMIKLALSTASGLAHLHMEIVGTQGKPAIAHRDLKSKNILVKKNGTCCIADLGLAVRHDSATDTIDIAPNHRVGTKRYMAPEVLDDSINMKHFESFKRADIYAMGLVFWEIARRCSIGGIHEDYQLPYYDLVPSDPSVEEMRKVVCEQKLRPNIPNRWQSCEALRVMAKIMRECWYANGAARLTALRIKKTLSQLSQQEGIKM
Put plainly: Inhibition of TGFBR1 (unknown origin) assessed as remaining activity at 1 uM by Kinome scan method relative to control.

Assay [18] has as its target Serine/threonine-protein kinase 32B (Homo sapiens) (UniProt Q9NY57). As to the kind of experiment: Inhibition of YANK2 (unknown origin) assessed as remaining activity at 1 uM by Kinome scan method relative to control.
For assay [19], the target named is Mitogen-activated protein kinase kinase kinase 19 (Homo sapiens) (UniProt Q56UN5). Put plainly: Inhibition of YSK4 (unknown origin) assessed as remaining activity at 1 uM by Kinome scan method relative to control.

Chain of Mitogen-activated protein kinase kinase kinase 4 (Homo sapiens) (Q9Y6R4 whole entry): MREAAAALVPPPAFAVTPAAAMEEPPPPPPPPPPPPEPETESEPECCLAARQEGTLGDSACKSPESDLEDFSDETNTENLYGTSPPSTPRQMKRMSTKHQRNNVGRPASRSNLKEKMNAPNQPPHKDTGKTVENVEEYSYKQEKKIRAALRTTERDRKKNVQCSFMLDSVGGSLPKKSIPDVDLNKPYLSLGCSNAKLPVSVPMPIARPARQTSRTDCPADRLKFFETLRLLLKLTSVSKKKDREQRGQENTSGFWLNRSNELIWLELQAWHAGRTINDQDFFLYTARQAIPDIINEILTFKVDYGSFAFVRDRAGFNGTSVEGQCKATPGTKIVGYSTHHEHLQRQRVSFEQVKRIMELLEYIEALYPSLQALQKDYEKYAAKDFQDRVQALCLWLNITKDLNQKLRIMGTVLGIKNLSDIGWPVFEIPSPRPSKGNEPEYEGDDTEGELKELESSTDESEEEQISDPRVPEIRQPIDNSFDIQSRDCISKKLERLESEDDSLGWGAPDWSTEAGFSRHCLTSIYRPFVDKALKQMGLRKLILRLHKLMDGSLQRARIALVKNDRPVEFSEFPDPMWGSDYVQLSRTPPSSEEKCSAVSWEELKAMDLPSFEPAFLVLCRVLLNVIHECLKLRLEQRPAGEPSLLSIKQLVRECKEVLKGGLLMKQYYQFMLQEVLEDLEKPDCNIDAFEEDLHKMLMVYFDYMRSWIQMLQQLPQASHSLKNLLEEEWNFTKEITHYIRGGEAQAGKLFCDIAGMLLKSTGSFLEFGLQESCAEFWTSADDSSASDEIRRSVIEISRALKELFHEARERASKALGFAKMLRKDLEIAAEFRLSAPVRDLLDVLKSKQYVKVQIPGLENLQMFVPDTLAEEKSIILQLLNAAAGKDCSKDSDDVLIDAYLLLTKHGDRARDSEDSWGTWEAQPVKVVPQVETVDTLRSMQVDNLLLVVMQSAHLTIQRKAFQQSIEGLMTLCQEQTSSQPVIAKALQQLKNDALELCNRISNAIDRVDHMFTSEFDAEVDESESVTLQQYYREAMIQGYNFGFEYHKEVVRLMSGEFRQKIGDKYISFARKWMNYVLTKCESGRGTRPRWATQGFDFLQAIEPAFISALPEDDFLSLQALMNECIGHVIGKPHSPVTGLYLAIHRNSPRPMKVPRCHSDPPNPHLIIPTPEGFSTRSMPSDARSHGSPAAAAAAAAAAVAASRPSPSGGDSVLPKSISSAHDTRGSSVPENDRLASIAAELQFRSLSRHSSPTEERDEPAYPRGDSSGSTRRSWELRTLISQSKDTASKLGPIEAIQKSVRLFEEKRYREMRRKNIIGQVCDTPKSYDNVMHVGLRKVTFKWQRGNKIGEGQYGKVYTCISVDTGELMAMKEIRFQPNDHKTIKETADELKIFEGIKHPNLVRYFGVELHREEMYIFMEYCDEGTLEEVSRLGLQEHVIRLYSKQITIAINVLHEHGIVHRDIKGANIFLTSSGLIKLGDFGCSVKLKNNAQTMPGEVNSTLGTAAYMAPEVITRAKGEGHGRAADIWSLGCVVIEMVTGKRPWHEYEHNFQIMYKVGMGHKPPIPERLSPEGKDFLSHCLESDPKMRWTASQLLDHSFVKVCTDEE
Chain of Myosin light chain kinase family member 4 (Homo sapiens) (Q86YV6 whole entry): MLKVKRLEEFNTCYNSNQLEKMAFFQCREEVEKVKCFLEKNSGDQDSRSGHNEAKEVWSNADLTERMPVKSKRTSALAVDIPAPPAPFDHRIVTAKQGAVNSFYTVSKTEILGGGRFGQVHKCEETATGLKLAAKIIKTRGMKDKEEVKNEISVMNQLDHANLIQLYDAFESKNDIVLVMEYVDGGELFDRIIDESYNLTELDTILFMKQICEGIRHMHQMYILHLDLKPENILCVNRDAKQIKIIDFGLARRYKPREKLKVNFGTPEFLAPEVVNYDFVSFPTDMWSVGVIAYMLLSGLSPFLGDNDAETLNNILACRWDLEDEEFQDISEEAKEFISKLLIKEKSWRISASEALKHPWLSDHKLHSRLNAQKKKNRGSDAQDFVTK
Chain of Death-associated protein kinase 1 (Homo sapiens) (P53355 whole entry, looked up): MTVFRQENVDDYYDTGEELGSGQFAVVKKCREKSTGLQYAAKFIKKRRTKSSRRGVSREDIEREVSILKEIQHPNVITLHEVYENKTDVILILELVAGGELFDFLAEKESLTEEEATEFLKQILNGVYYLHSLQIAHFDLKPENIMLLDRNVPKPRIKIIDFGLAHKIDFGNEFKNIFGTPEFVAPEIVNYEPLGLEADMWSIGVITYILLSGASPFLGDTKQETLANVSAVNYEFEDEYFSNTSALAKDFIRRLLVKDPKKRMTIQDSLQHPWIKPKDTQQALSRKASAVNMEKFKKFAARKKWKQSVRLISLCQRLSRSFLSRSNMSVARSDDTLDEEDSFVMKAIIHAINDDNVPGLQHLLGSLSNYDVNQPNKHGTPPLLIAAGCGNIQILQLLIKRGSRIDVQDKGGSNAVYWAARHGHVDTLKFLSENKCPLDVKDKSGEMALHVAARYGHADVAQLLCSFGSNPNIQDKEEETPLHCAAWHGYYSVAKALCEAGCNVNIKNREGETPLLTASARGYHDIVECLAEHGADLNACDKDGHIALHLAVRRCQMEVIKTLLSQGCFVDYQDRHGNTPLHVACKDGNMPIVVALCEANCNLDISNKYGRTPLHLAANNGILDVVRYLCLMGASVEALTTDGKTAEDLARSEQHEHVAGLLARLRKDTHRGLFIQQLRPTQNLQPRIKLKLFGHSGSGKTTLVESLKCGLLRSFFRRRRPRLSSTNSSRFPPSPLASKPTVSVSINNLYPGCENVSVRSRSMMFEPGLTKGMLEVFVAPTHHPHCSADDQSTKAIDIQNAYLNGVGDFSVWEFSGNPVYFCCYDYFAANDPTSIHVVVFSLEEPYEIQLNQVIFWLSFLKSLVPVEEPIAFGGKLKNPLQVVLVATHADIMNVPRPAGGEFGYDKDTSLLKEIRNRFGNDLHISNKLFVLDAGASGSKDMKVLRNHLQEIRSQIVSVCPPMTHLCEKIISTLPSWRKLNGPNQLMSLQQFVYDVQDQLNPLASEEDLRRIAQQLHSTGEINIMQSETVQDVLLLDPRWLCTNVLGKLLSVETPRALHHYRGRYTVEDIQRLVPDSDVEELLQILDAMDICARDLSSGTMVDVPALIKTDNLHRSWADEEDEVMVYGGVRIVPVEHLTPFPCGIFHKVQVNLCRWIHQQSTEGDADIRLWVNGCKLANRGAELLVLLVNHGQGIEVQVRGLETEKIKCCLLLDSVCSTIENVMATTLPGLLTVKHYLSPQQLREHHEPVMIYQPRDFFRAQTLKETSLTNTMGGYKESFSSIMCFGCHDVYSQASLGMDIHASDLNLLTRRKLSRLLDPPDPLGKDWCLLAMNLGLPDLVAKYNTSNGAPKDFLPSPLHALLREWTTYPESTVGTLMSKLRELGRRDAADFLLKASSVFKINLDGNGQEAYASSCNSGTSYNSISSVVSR
Chain of Mitogen-activated protein kinase kinase kinase 15 (Homo sapiens) (Q6ZN16 whole entry): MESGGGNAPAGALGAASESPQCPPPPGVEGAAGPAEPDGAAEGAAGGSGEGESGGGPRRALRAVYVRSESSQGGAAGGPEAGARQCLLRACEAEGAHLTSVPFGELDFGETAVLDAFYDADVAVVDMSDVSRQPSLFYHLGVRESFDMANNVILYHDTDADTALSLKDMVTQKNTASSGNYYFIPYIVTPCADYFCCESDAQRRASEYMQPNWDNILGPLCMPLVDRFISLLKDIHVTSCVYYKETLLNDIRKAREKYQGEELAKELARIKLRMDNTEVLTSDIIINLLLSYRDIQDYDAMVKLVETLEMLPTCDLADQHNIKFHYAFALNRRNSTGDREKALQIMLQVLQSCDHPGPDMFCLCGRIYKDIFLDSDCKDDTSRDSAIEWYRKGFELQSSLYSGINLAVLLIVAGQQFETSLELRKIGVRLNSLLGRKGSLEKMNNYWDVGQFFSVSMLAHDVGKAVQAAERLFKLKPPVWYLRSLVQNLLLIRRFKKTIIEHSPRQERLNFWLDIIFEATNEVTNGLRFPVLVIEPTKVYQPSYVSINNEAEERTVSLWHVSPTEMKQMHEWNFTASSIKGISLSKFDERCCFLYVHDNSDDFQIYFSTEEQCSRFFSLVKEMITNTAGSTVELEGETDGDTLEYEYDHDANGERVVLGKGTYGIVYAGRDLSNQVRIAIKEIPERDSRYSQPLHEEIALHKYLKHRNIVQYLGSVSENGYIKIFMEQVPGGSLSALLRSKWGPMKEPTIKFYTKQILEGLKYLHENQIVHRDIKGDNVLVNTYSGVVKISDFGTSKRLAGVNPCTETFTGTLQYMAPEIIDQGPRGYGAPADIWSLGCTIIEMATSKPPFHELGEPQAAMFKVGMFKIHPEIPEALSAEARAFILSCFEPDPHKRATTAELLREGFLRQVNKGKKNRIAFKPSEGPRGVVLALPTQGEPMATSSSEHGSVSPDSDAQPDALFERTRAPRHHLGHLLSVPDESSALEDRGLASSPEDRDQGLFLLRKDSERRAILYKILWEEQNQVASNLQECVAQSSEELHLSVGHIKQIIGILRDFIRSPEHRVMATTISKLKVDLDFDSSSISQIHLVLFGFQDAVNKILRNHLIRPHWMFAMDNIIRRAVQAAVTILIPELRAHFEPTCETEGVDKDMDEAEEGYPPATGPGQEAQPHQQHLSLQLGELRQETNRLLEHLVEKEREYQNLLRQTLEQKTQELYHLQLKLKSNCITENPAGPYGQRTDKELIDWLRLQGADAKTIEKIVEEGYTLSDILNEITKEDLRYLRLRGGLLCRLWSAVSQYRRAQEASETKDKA
Chain of Dual specificity mitogen-activated protein kinase kinase 6 (Homo sapiens) (P52564 whole entry): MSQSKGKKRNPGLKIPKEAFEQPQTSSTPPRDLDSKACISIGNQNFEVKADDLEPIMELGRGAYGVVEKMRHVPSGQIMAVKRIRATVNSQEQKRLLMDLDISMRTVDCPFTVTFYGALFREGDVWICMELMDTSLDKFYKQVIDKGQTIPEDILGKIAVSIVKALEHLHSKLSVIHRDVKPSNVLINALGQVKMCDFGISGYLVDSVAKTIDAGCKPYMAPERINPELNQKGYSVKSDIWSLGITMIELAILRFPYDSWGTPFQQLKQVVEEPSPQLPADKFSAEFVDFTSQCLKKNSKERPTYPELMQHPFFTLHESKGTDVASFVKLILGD

Turning to `Nc1ccccc1Nc1ccc2c(c1)CCc1ccccc1C2=O`, the Activity in assay [1] stood at 78%; in [2], 89%; in assay [3], 91%; in assay [4], 96%; in assay [5] it was 95%; in assay [6], 94%. For the same molecule, the Activity came to 97% in [7]; 97% in assay [8]; 98% in assay [9]; 94% in [10]; 82% in assay [11]; 76% in assay [12]. For the same molecule, the Activity in assay [13] was found to be 72%; in [14], 0.9%; in assay [15], 93%; in assay [16], 97%; in [17], 90%; in [18], 89%. Besides, in assay [19], the Activity came to 99%.
Regarding `O=C1c2ccc(Nc3ccc(F)cc3F)cc2CCc2ccc(OC[C@H](O)CO)cc21` [Skepinone-L], the Activity is 92% in [1]; 100% in assay [2]; 90% in assay [3]; 100% in assay [4]; 100% in assay [5]; 90% in assay [6]. In addition, the Activity in [7] came to 100%; in assay [8], 75%; in [9], 100%; in assay [10], 80%; in [11], 85%; in assay [12], 82%. The Activity is 97% in assay [13]; 0.15% in assay [14]; 100% in [15]; 100% in assay [16]; 100% in [17]; 98% in [18]. The Activity in [19] was 100%.
